According to patent US5179089A, “Isoquinoline compounds, compositions and use” (Chinoin Gyogyszer es Vegyeszeti Termekek Gyara Rt., priority 1990, dated 1993):
Read-outs that look alike come from different tables or passages of the source.

What was measured:
[1] = tested on: dextran-induced rat paw edema; assay: Dextran-induced rat paw edema test; assay type: in vivo; conditions: 50 mg/kg (p.o.)
Method: 3) Dextran-induced rat paw edema test The method of S. Gourvaisier and R. Ducrot [Arch. Int. Pharmacodyn. Ther. 102, 33 (1955)] was employed. The method described for the carrageenin edema test was followed, except that the measurements were carried out 30, 60, 90, 120 and 180 minutes after induction of the inflammation.

[2] = tested on: carrageenin-induced rat paw edema; assay: Carrageenin-induced rat paw edema test; assay type: in vivo, rat (female CFY); conditions: Rattus norvegicus, po, 50 mg/kg (p.o.), read-out: Percentage of the protective effect
Method: Proc. Soc. Exp. Med. 111, 544 (1962)]. Female CFY rats weighing 100 to 120 g each were used after starvation for 24 hours. The inflammation was induced by injecting 0.1 ml of 1% carrageenin solution into the right hind paw plant. The severity of inflammation was determined by using an Ugo-Basile type plethysmometer. The measurement was carried out before and 1.5, 3 and 4.5 hours after induction of the inflammation. The animals were orally treated with the substance to be tested 1 hour before administration of carrageenin. The effect was expressed as percentage inhibition related to the control group.

LD50 on rat = conditions: in vivo, iv
[3] = tested on: active local anaphylactic reaction; assay: Effect influencing the active local anaphylactic reaction on rat; assay type: in vivo, rat (female OFA); conditions: oral dose of 50 mg/kg, 30th minute after induction
Method: 1) The effect influencing the active local anaphylactic reaction was measured according to the method of M. Koltay [Arch. Allergy App. Immun. 71, 181 (1983)].
Female OFA rats weighing 160 to 180 g each were sensitized by bovine serum albumin (BSA) adsorbed to 50 μg of Al(OH)3 gel together with the simultaneous administration of Bordatella pertussis vaccine.
The anaphylactic reaction was elicited by injecting 100 μg of BSA into the right hind paw plant in the 14th day.
The measurements were carried out before and 30 minutes after eliciting the reaction. The animals were orally treated with the compound to be tested 1 hour before the injection of BSA. The results were expressed as percentage inhibition compared to the control group (average %±S.E.M.).

[4] = tested on: histamine-induced constriction of isolated tracheal smooth muscle of guinea pig; assay: Inhibition of the histamine-induced constriction of isolated tracheal smooth muscle of guinea pig; conditions: Cavia porcellus, 0.25 h, isolated guinea pig trachea, read-out: Inhibition of the histamine-induced constriction of isolated tracheal smooth muscle of guinea pig pd'2 (converted)
Method: I Study on the Effects Against Spasmogenic Mediators [modified method of J. C. […] The investigation on isolated organs were carried out as follows. OHF Lt/R9 guinea pigs of both sexes weighing 300 to 400 g each were anaesthetized by pentobarbital. Their trachea was removed and sectioned in the opposite side to the site of smooth muscle in longitudinal direction. Subsequently, a strip-like preparation was obtained by […] cutting. […] A rest load of 0.5 g was used. Several washings were carried out during the incubation period of 30 minutes. The change in the tension of the tracheal smooth muscle was followed by using an isometric Grass FT-03 type tensiometer sensor device. A washing was made following the cumulative dose series of the given mediator (e.g. histamine). After reaching the base line, by 15 minutes after administration of the given concentration of the inhibitory (antiasthmatic) substance to be tested, the next cumulative dose series of the mediator was administered. In the case of an inhibitory action, the strength of effect, following the second dose series of the mediator, was […] in comparison to that of the first (control) series. For characterization of strength of the competitive antagonistic effect the pA2 value was determined according to the method of […] A pd'2 value was calculated [J. M. Van Rossum: Arch. Int.

LD50 on mouse = conditions: in vivo

CCOc1cc2c(cc1OCC)C(=C(C#N)SCC(O)CN1CCOCC1)NCC2 (stereo not shown) [Example 18, 2-(6,7-diethoxy-1,2,3,4-tetrahydro-1-isoquinolinylidene)-2-[2-hydroxy-3-(4-morpholinyl)propyl]mercaptoacetonitrile]
Percentage of inhibition ([1]; 30 minutes): 29.8% | Percentage of inhibition ([1]; 60 minutes): 38.7% | Percentage of inhibition ([1]; 90 minutes): 30.4% | Percentage of inhibition ([1]; 120 minutes): 26.3% | Percentage of inhibition ([1]; 180 minutes): 28.4% | change in vivo at 50 mg/kg ([2]; 1.5 hours): -35.8% | change in vivo at 50 mg/kg ([2]; 3 hours): -29.3% | change in vivo at 50 mg/kg ([2]; 4.5 hours): -28.4% | LD50 (LD50 on rat; female rat): 133 mg/kg | LD50 (LD50 on rat; male rat): 91.4 mg/kg | Percentage of inhibition of the active local anaphylactic reaction [3]: -31% | IC50 [4]: 123 nM | LD50 (LD50 on mouse; iv, female mouse, read-out: LD50 i.v.): 150 mg/kg | LD50 (LD50 on mouse; iv, male mouse, read-out: LD50 i.v.): 166 mg/kg | LD50 (LD50 on mouse; po, female mouse, read-out: LD50 p.o.): 1030 mg/kg | LD50 (LD50 on mouse; po, male mouse, read-out: LD50 p.o.): 1200 mg/kg
